Source: PubChem BioAssay (NCI)
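Five compound concentrations were applied to cells in 96-well plates for 48 hours; endpoints were derived by simple linear interpolation of the resulting dose-response curve. GI50 is the concentration that inhibits growth by half. TGI: total growth inhibition.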

Experiments:
Assay in all cases: growth of human tumour cells (NCI), 48 h
EKVX NSCLC = test system: EKVX NSCLC
MALME-3M melanoma = test system: MALME-3M melanoma
U251 CNS = test system: U251 CNS
SK-OV-3 ovarian = test system: SK-OV-3 ovarian
OVCAR-4 ovarian = test system: OVCAR-4 ovarian
RPMI-8226 leukemia = test system: RPMI-8226 leukemia
M14 melanoma = test system: M14 melanoma
PC-3 prostate = test system: PC-3 prostate
NCI-H226 lung = test system: NCI-H226 lung
OVCAR-3 ovarian = test system: OVCAR-3 ovarian
NCI-H522 lung = test system: NCI-H522 lung
SK-MEL-2 melanoma = test system: SK-MEL-2 melanoma
HS 578T breast = test system: HS 578T breast
LOX IMVI melanoma = test system: LOX IMVI melanoma
MDA-MB-231 breast = test system: MDA-MB-231 breast
SNB-19 CNS = test system: SNB-19 CNS
KM12 colon = test system: KM12 colon
MDA-MB-435 = test system: MDA-MB-435
CCRF-CEM leukemia = test system: CCRF-CEM leukemia
RXF 393 renal = test system: RXF 393 renal
UACC-257 melanoma = test system: UACC-257 melanoma
MDA-MB-468 breast = test system: MDA-MB-468 breast
BT-549 breast = test system: BT-549 breast
A549 NSCLC = test system: A549 NSCLC
HL-60(TB) leukemia = test system: HL-60(TB) leukemia
MOLT-4 leukemia = test system: MOLT-4 leukemia
SW-620 colon = test system: SW-620 colon
SR leukemia = test system: SR leukemia
UACC-62 melanoma = test system: UACC-62 melanoma
HCC-2998 colon = test system: HCC-2998 colon
SK-MEL-28 melanoma = test system: SK-MEL-28 melanoma
HT29 colon = test system: HT29 colon
786-0 renal = test system: 786-0 renal
COLO 205 colon = test system: COLO 205 colon
A498 renal = test system: A498 renal
NCI-H460 lung = test system: NCI-H460 lung
IGROV1 ovarian = test system: IGROV1 ovarian
UO-31 renal = test system: UO-31 renal
SNB-75 CNS = test system: SNB-75 CNS
HOP-92 NSCLC = test system: HOP-92 NSCLC
SK-MEL-5 melanoma = test system: SK-MEL-5 melanoma
T-47D breast = test system: T-47D breast
SF-539 CNS = test system: SF-539 CNS
ACHN renal = test system: ACHN renal
MCF7 breast = test system: MCF7 breast
NCI-H23 lung = test system: NCI-H23 lung
OVCAR-8 ovarian = test system: OVCAR-8 ovarian
TK-10 renal = test system: TK-10 renal
SF-295 CNS = test system: SF-295 CNS
HOP-62 NSCLC = test system: HOP-62 NSCLC
HCT-15 colon = test system: HCT-15 colon
CAKI-1 renal = test system: CAKI-1 renal
OVCAR-5 ovarian = test system: OVCAR-5 ovarian
SN12C renal = test system: SN12C renal
K-562 leukemia = test system: K-562 leukemia
SF-268 CNS = test system: SF-268 CNS
DU-145 prostate = test system: DU-145 prostate
NCI/ADR-RES ovarian = test system: NCI/ADR-RES ovarian

Structure (SMILES): CCCCSc1nc(Nc2ccc(/C(C)=N/NC(N)=S)cc2)c(C#N)c(-c2ccc(F)cc2)n1
- GI50 (EKVX NSCLC): 3.67 µM
- TGI (EKVX NSCLC): 17.2 µM
- GI50 (MALME-3M melanoma): 2390 nM
- TGI (MALME-3M melanoma): 11.5 µM
- GI50 (U251 CNS): 1240 nM
- TGI (U251 CNS): 3.83 µM
- GI50 (SK-OV-3 ovarian): 3.54 µM
- TGI (SK-OV-3 ovarian): 9.87 µM
- GI50 (OVCAR-4 ovarian): 1850 nM
- TGI (OVCAR-4 ovarian): 85.5 µM
- GI50 (RPMI-8226 leukemia): 3.4 µM
- TGI (RPMI-8226 leukemia): > 100 µM
- GI50 (M14 melanoma): 3.52 µM
- TGI (M14 melanoma): 19.6 µM
- GI50 (PC-3 prostate): 1420 nM
- TGI (PC-3 prostate): 7.02 µM
- GI50 (NCI-H226 lung): 1590 nM
- TGI (NCI-H226 lung): 5.29 µM
- GI50 (OVCAR-3 ovarian): 2570 nM
- TGI (OVCAR-3 ovarian): 10.1 µM
- GI50 (NCI-H522 lung): 1920 nM
- TGI (NCI-H522 lung): 7.05 µM
- GI50 (SK-MEL-2 melanoma): 4.4 µM
- TGI (SK-MEL-2 melanoma): 20 µM
- GI50 (HS 578T breast): 1710 nM
- TGI (HS 578T breast): 8.14 µM
- GI50 (LOX IMVI melanoma): 1880 nM
- TGI (LOX IMVI melanoma): 10.1 µM
- GI50 (MDA-MB-231 breast): 1030 nM
- TGI (MDA-MB-231 breast): 4.28 µM
- GI50 (SNB-19 CNS): 2510 nM
- TGI (SNB-19 CNS): 8.31 µM
- GI50 (KM12 colon): 15.9 µM
- TGI (KM12 colon): > 100 µM
- GI50 (MDA-MB-435): 4.13 µM
- TGI (MDA-MB-435): 24.8 µM
- GI50 (CCRF-CEM leukemia): 814 nM
- TGI (CCRF-CEM leukemia): > 100 µM
- GI50 (RXF 393 renal): 1970 nM
- TGI (RXF 393 renal): 5.49 µM
- GI50 (UACC-257 melanoma): 15.4 µM
- TGI (UACC-257 melanoma): 61.8 µM
- GI50 (MDA-MB-468 breast): 2260 nM
- TGI (MDA-MB-468 breast): 8.99 µM
- GI50 (BT-549 breast): 6.6 µM
- TGI (BT-549 breast): 28.1 µM
- GI50 (A549 NSCLC): 2350 nM
- TGI (A549 NSCLC): 7.57 µM
- GI50 (HL-60(TB) leukemia): > 100 µM
- TGI (HL-60(TB) leukemia): > 100 µM
- GI50 (MOLT-4 leukemia): 3.63 µM
- TGI (MOLT-4 leukemia): > 100 µM
- GI50 (SW-620 colon): 2700 nM
- TGI (SW-620 colon): 42.1 µM
- GI50 (SR leukemia): 8.62 µM
- TGI (SR leukemia): > 100 µM
- GI50 (UACC-62 melanoma): 2910 nM
- TGI (UACC-62 melanoma): 12 µM
- GI50 (HCC-2998 colon): 3.29 µM
- TGI (HCC-2998 colon): 18.7 µM
- GI50 (SK-MEL-28 melanoma): 3.83 µM
- TGI (SK-MEL-28 melanoma): 17.9 µM
- GI50 (HT29 colon): 5.89 µM
- TGI (HT29 colon): > 100 µM
- GI50 (786-0 renal): 1690 nM
- TGI (786-0 renal): 3.88 µM
- GI50 (COLO 205 colon): 4.03 µM
- TGI (COLO 205 colon): 23.1 µM
- GI50 (A498 renal): 2700 nM
- TGI (A498 renal): 7.1 µM
- GI50 (NCI-H460 lung): 578 nM
- TGI (NCI-H460 lung): 2250 nM
- GI50 (IGROV1 ovarian): 12 µM
- TGI (IGROV1 ovarian): 30.3 µM
- GI50 (UO-31 renal): 761 nM
- TGI (UO-31 renal): 3.01 µM
- GI50 (SNB-75 CNS): 1600 nM
- TGI (SNB-75 CNS): 6.54 µM
- GI50 (HOP-92 NSCLC): 1230 nM
- TGI (HOP-92 NSCLC): 4.01 µM
- GI50 (SK-MEL-5 melanoma): 2300 nM
- TGI (SK-MEL-5 melanoma): 12.5 µM
- GI50 (T-47D breast): 1190 nM
- TGI (T-47D breast): 18 µM
- GI50 (SF-539 CNS): 1400 nM
- TGI (SF-539 CNS): 4.49 µM
- GI50 (ACHN renal): 858 nM
- TGI (ACHN renal): 4.37 µM
- GI50 (MCF7 breast): 893 nM
- TGI (MCF7 breast): 11.4 µM
- GI50 (NCI-H23 lung): 1560 nM
- TGI (NCI-H23 lung): 4.69 µM
- GI50 (OVCAR-8 ovarian): 3.85 µM
- TGI (OVCAR-8 ovarian): 21.1 µM
- GI50 (TK-10 renal): 2920 nM
- TGI (TK-10 renal): 7.08 µM
- GI50 (SF-295 CNS): 1210 nM
- TGI (SF-295 CNS): 2750 nM
- GI50 (HOP-62 NSCLC): 2250 nM
- TGI (HOP-62 NSCLC): 5.1 µM
- GI50 (HCT-15 colon): 1380 nM
- TGI (HCT-15 colon): 16.8 µM
- GI50 (CAKI-1 renal): 1710 nM
- TGI (CAKI-1 renal): 4.97 µM
- GI50 (OVCAR-5 ovarian): 12.5 µM
- TGI (OVCAR-5 ovarian): 50.5 µM
- GI50 (SN12C renal): 11.8 µM
- TGI (SN12C renal): 57 µM
- GI50 (K-562 leukemia): 4.46 µM
- TGI (K-562 leukemia): > 100 µM
- GI50 (SF-268 CNS): 13.6 µM
- TGI (SF-268 CNS): 89.3 µM
- GI50 (DU-145 prostate): 3.12 µM
- TGI (DU-145 prostate): 49.8 µM
- GI50 (NCI/ADR-RES ovarian): 1340 nM
- TGI (NCI/ADR-RES ovarian): 5.72 µM
